Measurements reported in ChEMBL document CHEMBL3259785, “Recent advances in the discovery of small molecules targeting exchange proteins directly activated by cAMP (EPAC)” (J Med Chem, 2014).
pIC50: −log10 of the molar value.

What was measured:
[1] = biological target: T1, Rap guanine nucleotide exchange factor 4 (Homo sapiens, UniProt Q8WZA2); assay: Displacement of 8-NBD-cAMP from EPAC2 (unknown origin) by fluorescence plate reader analysis
[2] = biological target: T1, Rap guanine nucleotide exchange factor 4; assay: Inhibition of EPAC2 (unknown origin)
[3] = biological target: T2, Rap guanine nucleotide exchange factor 3 (Homo sapiens, UniProt O95398); assay: Inhibition of EPAC1 (unknown origin) assessed as cAMP-mediated GEF activity
T2 sequence (O95398 whole entry): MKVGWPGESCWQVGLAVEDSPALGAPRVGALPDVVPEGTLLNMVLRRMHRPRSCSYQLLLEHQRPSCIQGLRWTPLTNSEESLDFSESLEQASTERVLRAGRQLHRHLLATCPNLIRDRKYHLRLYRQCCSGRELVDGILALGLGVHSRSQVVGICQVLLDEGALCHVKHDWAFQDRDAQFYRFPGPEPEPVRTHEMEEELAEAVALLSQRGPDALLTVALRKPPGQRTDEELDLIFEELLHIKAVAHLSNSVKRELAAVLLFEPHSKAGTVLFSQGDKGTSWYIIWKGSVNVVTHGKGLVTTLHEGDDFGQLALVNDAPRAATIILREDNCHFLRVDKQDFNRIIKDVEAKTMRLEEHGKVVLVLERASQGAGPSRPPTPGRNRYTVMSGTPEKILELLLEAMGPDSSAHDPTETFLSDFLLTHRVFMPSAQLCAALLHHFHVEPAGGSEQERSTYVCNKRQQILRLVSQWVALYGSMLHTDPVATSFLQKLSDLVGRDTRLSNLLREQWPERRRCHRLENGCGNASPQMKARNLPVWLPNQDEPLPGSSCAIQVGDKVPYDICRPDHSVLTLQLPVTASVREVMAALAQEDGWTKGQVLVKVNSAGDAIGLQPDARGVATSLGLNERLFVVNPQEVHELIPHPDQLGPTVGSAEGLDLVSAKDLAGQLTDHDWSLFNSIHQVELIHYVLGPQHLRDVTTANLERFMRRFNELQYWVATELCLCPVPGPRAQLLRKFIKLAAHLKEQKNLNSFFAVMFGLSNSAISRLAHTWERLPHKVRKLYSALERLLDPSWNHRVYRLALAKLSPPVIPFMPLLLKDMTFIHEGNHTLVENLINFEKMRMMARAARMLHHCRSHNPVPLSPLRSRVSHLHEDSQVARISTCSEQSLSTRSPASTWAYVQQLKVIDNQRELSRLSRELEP

T1 sequence (Q8WZA2 whole entry): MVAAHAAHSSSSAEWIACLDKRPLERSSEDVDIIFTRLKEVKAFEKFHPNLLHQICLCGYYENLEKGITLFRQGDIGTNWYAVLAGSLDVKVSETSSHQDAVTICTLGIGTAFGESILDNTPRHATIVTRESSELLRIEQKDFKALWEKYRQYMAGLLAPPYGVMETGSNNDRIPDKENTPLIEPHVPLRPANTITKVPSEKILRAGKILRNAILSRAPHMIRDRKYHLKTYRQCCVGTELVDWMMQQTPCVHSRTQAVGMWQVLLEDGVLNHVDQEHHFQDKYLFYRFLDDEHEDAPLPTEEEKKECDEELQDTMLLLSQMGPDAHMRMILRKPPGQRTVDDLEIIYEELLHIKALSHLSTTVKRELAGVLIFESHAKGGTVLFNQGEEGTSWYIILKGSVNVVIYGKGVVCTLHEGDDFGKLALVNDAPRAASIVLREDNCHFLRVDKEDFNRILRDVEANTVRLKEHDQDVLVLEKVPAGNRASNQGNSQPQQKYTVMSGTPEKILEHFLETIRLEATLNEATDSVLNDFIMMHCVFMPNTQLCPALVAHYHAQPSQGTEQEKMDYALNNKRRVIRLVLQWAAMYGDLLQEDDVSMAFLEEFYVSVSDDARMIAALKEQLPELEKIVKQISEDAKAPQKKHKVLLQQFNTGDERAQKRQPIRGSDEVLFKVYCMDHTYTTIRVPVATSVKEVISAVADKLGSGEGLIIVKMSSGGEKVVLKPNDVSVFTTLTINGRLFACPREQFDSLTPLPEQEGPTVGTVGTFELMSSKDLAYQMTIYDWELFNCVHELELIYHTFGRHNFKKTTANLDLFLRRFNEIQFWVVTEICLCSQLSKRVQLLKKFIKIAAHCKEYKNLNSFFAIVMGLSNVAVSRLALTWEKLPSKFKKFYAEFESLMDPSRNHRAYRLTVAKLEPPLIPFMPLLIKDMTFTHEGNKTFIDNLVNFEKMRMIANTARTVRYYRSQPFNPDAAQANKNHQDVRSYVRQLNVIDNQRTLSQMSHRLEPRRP

| Compound | pIC50 [1] | pIC50 [2] | pIC50 [3] |
| --- | --- | --- | --- |
| O=S(=O)(O)c1ccc2c(/N=N/c3c(O)ccc4ccccc34)cccc2c1 | 5.77 |  |  |
| N#Cc1c(NC(=O)C(F)(F)F)sc2c3c(=O)c4ccccc4c(=O)c=3oc3ccccc3c12 | 5.10 |  |  |

Further lines, results first:

| pIC50 [1] | pIC50 [2] | pIC50 [3] | Compound |
| --- | --- | --- | --- |
| 5.42 |  |  | O=C1C=CC2=C(Oc3c(ccc(O)c3O)/C2=C/C=C(O)O)C1=O |
|  | 6.22 |  | COCCC[n+]1c(C)csc1Nc1c(C)cc(C)cc1C |
| 5.15 |  | 5.49 | CC(C)(C)c1cc(C(=O)/C(C#N)=N/Nc2cccc(Cl)c2)no1 |
